# “And” between values parts separate entries of the source, which are not always exact repeats. Equal entries are not always repeated. Where two headings read alike, the source gives them in different places.
# What was measured:
# [1] = target: T1, NMDAR (GluN1/GluN2A) in transiently transfected HEK cells (Rattus norvegicus, UniProt P35439+Q00959); test: Rapid agonist application patch-clamp recording of NMDAR responses (patcherBotPharma); assay type: cell-based; details: rapid application of 1 mM Glutamate for 1 sec; −60 mV
# T1 construct: expressed in transfected cells; host or cells: HEK-293 cells (CRL 1573, ATCC); calcium phosphate transient transfection with GFP co-transfected
# Experimental: (§1) Recordings are from a lifted whole cell (left) and an outside-out patch using a 4 MΩ electrode (right), at −60 mV in 0 mM Mg^2+. […] Recordings are from a lifted whole cell (left, 1 s application) and an outside-out patch (right, 5 ms application).
# HEK-293 cells (CRL 1573, ATCC; hereafter HEK cells) and a stable GABAAR-expressing cell line were cultured in DMEM (Cat #10566016, ThermoFisher Scientific) supplemented with 10% fetal bovine serum (FBS), 10 U/ml penicillin, and 10 lag/ml streptomycin and maintained at 5% CO2 in a 37° C. incubator. For use on the electrophysiology rig, heterologous cells were plated on poly-D-Lysine (PDL) coated glass coverslips (0.1-0.5 mg/mL, Warner Instruments). Transiently transfected recombinant receptors were expressed from complementary DNA (cDNA) encoding rat GluN1-1a (hereafter GluN1, U08261) and GluN2A (D13211). Calcium phosphate was used to transiently transfect HEK cells in a 24-well plate with 500 ng of cDNA at a ratio of 1:1:5 (GluN1:GluN2A:GFP). Four hours after transfection, NMDAR antagonists D,L-2amino-5-phosphonovalerate (200 μM, DL-APV) and 7-chlorokynurenic acid (200 μM) were added to the culture medium to decrease the cytotoxic effect of NMDAR expression.
# (§2) Whole-cell voltage-clamp recordings were performed with thin-walled borosilicate glass electrodes (3-6 MΩ, TW150E-4, World Precision Instruments) filled with solution containing (in mM) 110 Cs-gluconate, 30 CsCl, 5 HEPES, 4 NaCl, 0.5 CaCl2, 2 MgCl2, 5 BAPTA, 2 NaATP, 0.3 NaGTP (pH 7.35). The extracellular recording solution contained (in mM) 150 NaCl, 10 HEPES, 3 KCl, 0.5 CaCl2, 1 MgCl2, and 0.01 EDTA (pH 7.4). Whole cell recording from primary cortical neurons (examples showing alternative experiment paradigm in the supplemental) were obtained utilizing an internal solution, containing (in mM) 115 K-gluconate, 20 KCl, 10 HEPES, 2 Mg2ATP, 0.3 NaGTP, and 10 Na2Phosphocreatine (pH 7.35), and external solution stated above but with 1 mM CaCl2. The electrode cleaning solution (2% Tergazyme in water) was made fresh daily. Cleaned electrodes were washed in appropriate internal solution. All solutions were filtered (0.45 μm or 0.22 μm). Responses were recorded using a Multiclamp 700B (Molecular Devices), filtered at 10 kHz (−3 dB), and digitized at 20 kHz.
# (§3) Whole-cell rapid solution exchange experiments were analyzed using custom algorithms (Matlab, Mathworks). The desensitization and deactivation time courses were fitted by exponential functions based on receptor type. For NMDAR desensitization and GABAAR deactivation, they were fit by one exponential function,
# A series of pharmacology experiments were performed on GABAAR and NMDARs where rapid agonist application was applied to excised outside-out patches to assess patcherBotPharma performance on the minimum processes required in an experiment, described in more detail in Table 1).
# [2] = target: T1, NMDAR (GluN1/GluN2A) in transiently transfected HEK cells; test: as above; assay type: cell-based; details: rapid application of 1 mM Glutamate for 1 sec; −40 mV
# [3] = target: T2, GABAAR (α1β2γ2 L) in stably transfected HEK cells (Mus musculus, UniProt P22723+P62812+P63137); test: Rapid agonist application patch-clamp recording of GABAAR responses (patcherBotPharma); assay type: cell-based; details: rapid application of 1 mM GABA for 1 sec
# T2 construct: expressed in transfected cells; host or cells: HEK 293 cells
# Experimental: as §1
# (§4) cDNAs for mouse Gabra1, Gabrb2, and the long form of Gabrg2 were subcloned into the pAC156 plasmid, a generous gift from Albert Cheng. The cDNAs were driven by an EF1alpha promoter. A PGK promoter-driven puromycin resistance cassette was also present in pAC156; both cassettes were flanked by piggybac transposon arms. All three plasmids were co-transfected with the mPB piggybac transposase into HEK 293 cells, selected by puromycin, and sorted into single cells. Clones were assayed for Gabra1, Gabrb2, and Gabrg2 expression by immunofluorescence, and one clone was expanded for further study and use in this description herein. Trypsin was used to dissociate the cells and plated on the same coverslips, as mentioned above, 24-72 hours before experimentation (shorter time and less PDL for lifted cell, and the inverse for excised patches).
# as §2, §3
# In this experimental run, the patcherBotPharma was programmed to collect four-phase recordings. During each phase, five technical replicate sweeps were collected, a 10 sec sweep with agonist applied for 0.5 sec. Following each set of recordings, the patch was blown off with high pressure and the open-tip exchange time was determined to validate the electrode positioning.
# [4] = target: T3, GABAAR in stably expressing HEK cells (Mus musculus, UniProt P22723+P62812+P63137); test: cell-based
# T3 construct: expressed in transfected cells; host or cells: HEK 293 cells
# Text: FIGS. 5A through 5D provides various steps system 500 can perform to achieve a time-constant concentration response of deactivation of a cell receptor exposed to a drug. […] FIGS. 5A through 5D the individual steps in a flowchart illustrating the patcherBotPharma operation, timing, and success rate. After the one-time calibration and cell selection step 502, system 500 loops through and serially records from the selected cells in steps 504 through 514. Quality control measures are in place at steps 506, 508a, 508b, and 510 to terminate the current experiment and continue to the next iteration, as shown in FIG. 5A. System 500 can perform calibration and cell selection 502 manually such that the user selects one or more cells within a biological sample. In some instances, calibration and cell selection 502 can be performed automatically. For instance, calibration can be pre-programed and stored in memory 66 of controller 200. Alternatively, or in addition thereto, calibration can be automatically sensed by a combination of the manipulator assembly 120 and automated control of a microscope.
# After quality control measures verify an appropriate seal between the pipette tip 110 and the cell target, system 500 can initiate the experimental protocol at step 512. […] Each phase of each experiment would start with the valves changing to the next set to be tested, with a wait step to allow for the solutions to be primed, followed by the collection of 10 replicates of the intended jump protocol.
# as §4, §2
# Whole-cell rapid solution exchange experiments were analyzed using custom algorithms (Matlab, Mathworks). The desensitization and deactivation time courses were fitted by exponential functions based on receptor type.
# [5] = 1 mM GABA for 0.5 sec, propofol-free GABA Control, concentration set 1
# [6] = 1 mM GABA for 0.5 sec, propofol-free GABA Control, concentration set 2
# [7] = 0.5 μM PRO, 1 mM GABA for 0.5 sec, set 1
# [8] = 1 μM PRO, 1 mM GABA for 0.5 sec, set 2
# [9] = 2 μM PRO, 1 mM GABA for 0.5 sec, set 1
# [10] = 5 μM PRO, 1 mM GABA for 0.5 sec, set 2
# [11] = 10 μM PRO, 1 mM GABA for 0.5 sec, set 1
# [12] = 20 μM PRO, 1 mM GABA for 0.5 sec, set 2
# [13] = 50 μM PRO, 1 mM GABA for 0.5 sec, set 1
# [14] = 100 μM PRO, 1 mM GABA for 0.5 sec, set 2
# T1 sequence (Q00959 23-1464, other chains not shown): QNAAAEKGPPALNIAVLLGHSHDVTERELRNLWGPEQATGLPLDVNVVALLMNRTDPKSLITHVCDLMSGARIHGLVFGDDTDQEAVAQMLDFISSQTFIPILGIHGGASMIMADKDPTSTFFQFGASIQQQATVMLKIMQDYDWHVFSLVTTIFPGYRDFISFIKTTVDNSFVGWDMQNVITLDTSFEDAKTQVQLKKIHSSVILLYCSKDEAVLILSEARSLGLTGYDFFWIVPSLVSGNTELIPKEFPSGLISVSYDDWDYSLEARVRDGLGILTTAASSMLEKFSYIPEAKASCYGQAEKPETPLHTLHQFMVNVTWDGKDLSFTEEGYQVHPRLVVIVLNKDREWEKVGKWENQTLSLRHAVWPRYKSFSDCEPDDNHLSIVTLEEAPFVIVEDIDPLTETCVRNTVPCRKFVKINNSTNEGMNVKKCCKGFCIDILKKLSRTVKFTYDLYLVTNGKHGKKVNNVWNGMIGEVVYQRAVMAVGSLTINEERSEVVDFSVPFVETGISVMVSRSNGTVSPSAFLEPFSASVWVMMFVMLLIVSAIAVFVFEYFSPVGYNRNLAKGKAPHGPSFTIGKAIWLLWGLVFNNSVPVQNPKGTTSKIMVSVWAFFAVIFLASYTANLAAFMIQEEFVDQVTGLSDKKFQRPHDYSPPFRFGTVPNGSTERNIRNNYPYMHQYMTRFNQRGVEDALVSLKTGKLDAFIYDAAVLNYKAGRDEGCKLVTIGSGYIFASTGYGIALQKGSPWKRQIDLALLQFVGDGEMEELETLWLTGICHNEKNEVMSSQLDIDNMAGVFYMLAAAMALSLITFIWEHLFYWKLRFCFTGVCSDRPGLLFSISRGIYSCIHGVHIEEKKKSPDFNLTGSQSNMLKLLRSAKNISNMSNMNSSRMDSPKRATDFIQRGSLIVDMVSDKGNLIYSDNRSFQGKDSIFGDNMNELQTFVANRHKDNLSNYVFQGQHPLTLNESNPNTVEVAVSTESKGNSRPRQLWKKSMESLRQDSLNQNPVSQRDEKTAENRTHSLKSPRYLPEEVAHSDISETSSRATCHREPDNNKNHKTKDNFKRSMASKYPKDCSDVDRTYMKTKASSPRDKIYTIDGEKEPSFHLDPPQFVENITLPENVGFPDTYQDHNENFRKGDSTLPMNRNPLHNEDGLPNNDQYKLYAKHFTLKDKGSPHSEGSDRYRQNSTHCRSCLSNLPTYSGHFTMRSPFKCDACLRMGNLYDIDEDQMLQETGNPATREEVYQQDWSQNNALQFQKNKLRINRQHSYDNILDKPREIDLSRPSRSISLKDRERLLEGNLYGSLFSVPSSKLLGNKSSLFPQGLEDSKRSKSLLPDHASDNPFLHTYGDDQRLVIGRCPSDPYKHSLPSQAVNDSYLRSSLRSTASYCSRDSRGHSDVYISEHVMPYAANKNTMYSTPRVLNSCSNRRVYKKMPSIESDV
# T2 sequence (P62812 28-455): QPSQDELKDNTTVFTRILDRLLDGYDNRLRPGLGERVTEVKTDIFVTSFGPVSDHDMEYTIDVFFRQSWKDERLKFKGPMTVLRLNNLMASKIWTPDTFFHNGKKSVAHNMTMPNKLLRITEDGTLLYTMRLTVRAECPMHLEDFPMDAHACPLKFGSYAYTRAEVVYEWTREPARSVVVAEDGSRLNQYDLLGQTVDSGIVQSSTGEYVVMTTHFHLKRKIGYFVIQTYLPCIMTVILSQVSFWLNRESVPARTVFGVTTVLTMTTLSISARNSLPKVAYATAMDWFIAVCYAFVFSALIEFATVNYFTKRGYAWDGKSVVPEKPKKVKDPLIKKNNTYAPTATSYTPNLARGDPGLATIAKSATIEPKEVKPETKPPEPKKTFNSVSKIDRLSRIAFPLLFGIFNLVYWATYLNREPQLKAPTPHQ
# T2 sequence (P63137 25-512 limits assumed): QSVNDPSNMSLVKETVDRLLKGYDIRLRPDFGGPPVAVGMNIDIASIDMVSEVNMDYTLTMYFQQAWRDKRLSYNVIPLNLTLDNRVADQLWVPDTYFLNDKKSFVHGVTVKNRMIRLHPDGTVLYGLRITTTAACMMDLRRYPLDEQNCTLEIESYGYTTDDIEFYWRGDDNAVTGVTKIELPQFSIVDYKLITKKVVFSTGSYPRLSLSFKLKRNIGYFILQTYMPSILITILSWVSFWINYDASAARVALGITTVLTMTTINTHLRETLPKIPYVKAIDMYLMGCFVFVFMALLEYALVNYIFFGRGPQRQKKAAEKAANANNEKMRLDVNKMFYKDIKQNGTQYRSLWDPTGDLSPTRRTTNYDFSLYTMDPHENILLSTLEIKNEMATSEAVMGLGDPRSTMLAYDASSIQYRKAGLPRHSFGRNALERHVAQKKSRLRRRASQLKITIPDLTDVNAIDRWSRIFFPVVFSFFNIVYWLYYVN
# T2 sequence (P22723 39-474): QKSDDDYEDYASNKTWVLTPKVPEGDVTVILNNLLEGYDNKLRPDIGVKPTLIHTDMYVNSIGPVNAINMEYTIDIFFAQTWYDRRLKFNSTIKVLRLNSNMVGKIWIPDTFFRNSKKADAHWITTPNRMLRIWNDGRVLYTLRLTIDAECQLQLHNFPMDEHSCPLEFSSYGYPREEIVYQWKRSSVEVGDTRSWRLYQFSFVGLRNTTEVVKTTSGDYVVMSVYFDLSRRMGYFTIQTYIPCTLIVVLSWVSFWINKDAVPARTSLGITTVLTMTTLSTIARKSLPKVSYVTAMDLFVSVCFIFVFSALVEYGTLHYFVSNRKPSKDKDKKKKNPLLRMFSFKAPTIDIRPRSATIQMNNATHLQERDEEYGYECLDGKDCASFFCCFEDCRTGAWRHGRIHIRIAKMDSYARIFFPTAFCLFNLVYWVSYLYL
# T3 sequence (P62812 28-455): as the sequence (P62812 28-455) above
# T3 sequence (P63137 25-512 limits assumed): as the sequence (P63137 25-512 limits assumed) above
# T3 sequence (P22723 39-474): as the sequence (P22723 39-474) above
structure (smiles),measurement,setting,value
"N[C@@H](CCC(=O)O)C(=O)O [Glutamate, glutamate]",Deactivation Tau,[1],81.3 ± 18.4 ms
same,Desensitization Extent (SS/Peak %),[1],54.8 ± 6.9%
same,Desensitization Tau,[1],984 ± 192 ms
same,Response Peak Amplitude,[1],326 ± 180 pA
same,Response Steady State Amplitude,[1],215 ± 139 pA
same,Deactivation Tau,[2],71.9 ± 11.0 ms
same,Desensitization Extent (SS/Peak %),[2],34.2 ± 6.4%
same,Desensitization Tau,[2],388 ± 75 ms
same,Response Peak Amplitude,[2],271 ± 104 pA
same,Response Steady State Amplitude,[2],130 ± 68 pA
NCCCC(=O)O [GABA],Deactivation Tau,[3]; −40 mV,216 ± 29 ms
same,Desensitization Extent (SS/Peak %),[3]; −40 mV,26.4 ± 1.8%
same,Desensitization Tau,[3]; −40 mV,681 ± 130 ms
same,Response Peak Amplitude,[3]; −40 mV,586 ± 150 pA
same,Response Steady State Amplitude,[3]; −40 mV,170 ± 54 pA
same,Deactivation Tau,[3]; −60 mV,133 ± 6 ms
same,Desensitization Extent (SS/Peak %),[3]; −60 mV,24.8 ± 1.1%
same,Desensitization Tau,[3]; −60 mV,965 ± 298 ms
same,Response Peak Amplitude,[3]; −60 mV,173 ± 48 pA
same,Deactivation Tau,[4]; [5],129 ± 11 ms
same,Desensitization Extent (SS/Peak %),[4]; [5],39.3 ± 2.0%
same,Response Peak Amplitude,[4]; [5],133 ± 36 pA
same,Response Steady State Amplitude,[4]; [5],51.1 ± 12.3 pA
same,Deactivation Tau,[4]; [6],130 ± 27 ms
same,Desensitization Extent (SS/Peak %),[4]; [6],31.8 ± 7.7%
same,Response Peak Amplitude,[4]; [6],93.6 ± 6.8 pA
same,Response Steady State Amplitude,[4]; [6],30.5 ± 8.1 pA
CC(C)c1cccc(C(C)C)c1O [propofol],Deactivation Tau,[4],143 ± 25 ms and 129 ± 12 ms
same,Desensitization Extent (SS/Peak %),[4],41.8 ± 1.7% and 25.2 ± 13.5%
same,EC50,[4],11.8 ± 4.6 µM
same,Deactivation Tau,[4]; [7],116 ± 13 ms
same,Desensitization Extent (SS/Peak %),[4]; [7],39.6 ± 1.3%
same,Response Peak Amplitude,[4]; [7],100 ± 20 pA
same,Response Steady State Amplitude,[4]; [7],40.4 ± 8.9 pA
same,Deactivation Tau,[4]; [8],110 ± 15 ms
same,Desensitization Extent (SS/Peak %),[4]; [8],34.9 ± 6.7%
same,Response Peak Amplitude,[4]; [8],72.2 ± 18.0 pA
same,Response Steady State Amplitude,[4]; [8],24.2 ± 6.6 pA
same,Deactivation Tau,[4]; [9],128 ± 13 ms
same,Desensitization Extent (SS/Peak %),[4]; [9],40.0 ± 1.7%
same,Response Peak Amplitude,[4]; [9],109 ± 32 pA
same,Response Steady State Amplitude,[4]; [9],45.6 ± 14.9 pA
same,Deactivation Tau,[4]; [10],198 ± 29 ms
same,Desensitization Extent (SS/Peak %),[4]; [10],30.0 ± 5.1%
same,Response Peak Amplitude,[4]; [10],37.8 ± 9.1 pA
same,Response Steady State Amplitude,[4]; [10],11.1 ± 2.4 pA
same,Deactivation Tau,[4]; [11],208 ± 20 ms
same,Desensitization Extent (SS/Peak %),[4]; [11],43.1 ± 2.2%
same,Response Peak Amplitude,[4]; [11],96.0 ± 25.2 pA
same,Response Steady State Amplitude,[4]; [11],42.1 ± 11.6 pA
same,Deactivation Tau,[4]; [12],328 ± 53 ms
same,Desensitization Extent (SS/Peak %),[4]; [12],25.2 ± 6.6%
same,Response Peak Amplitude,[4]; [12],21.5 ± 4.6 pA
same,Response Steady State Amplitude,[4]; [12],6.1 ± 2.2 pA
same,Deactivation Tau,[4]; [13],331 ± 21 ms
same,Desensitization Extent (SS/Peak %),[4]; [13],33.8 ± 2.7%
same,Response Peak Amplitude,[4]; [13],63.9 ± 17.8 pA
same,Response Steady State Amplitude,[4]; [13],23.5 ± 7.4 pA
same,Deactivation Tau,[4]; [14],415 ± 226 ms
same,Response Peak Amplitude,[4]; [14],8.9 ± 1.2 pA
same,Response Steady State Amplitude,[4]; [14],5.8 ± 7.5 pA

# Reference: US20240168041A1, “SYSTEMS AND METHODS ENABLING PH[…] TESTING OF PATCH-CLAMP SAMPLES” (priority 2021, published 2024)
